{
  "source": "the NIST ThermoML archive (doi:10.1021/je5005752)",
  "experiment": "xn = mol fraction of the nth substance listed",
  "conditions": "101 kPa, Liquid; for viscosity: Falling or rolling sphere viscometry; for mass density: Vibrating tube method",
  "note": "Numbers after ± are expanded uncertainties.",
  "data": [
    {"smiles": "CCCC(=O)OCC", "note": "[ethyl butanoate] + CCCCO", "values": [
      {"measurement": "viscosity", "setting": "308.15 K, x1 = 0.1", "value": "1.479 ± 0.032", "unit": "mPa·s"},
      {"measurement": "viscosity", "setting": "308.15 K, x1 = 0.2001", "value": "1.174 ± 0.025", "unit": "mPa·s"},
      {"measurement": "viscosity", "setting": "308.15 K, x1 = 0.2999", "value": "0.9797 ± 0.021", "unit": "mPa·s"},
      {"measurement": "viscosity", "setting": "308.15 K, x1 = 0.3998", "value": "0.852 ± 0.018", "unit": "mPa·s"},
      {"measurement": "viscosity", "setting": "308.15 K, x1 = 0.5", "value": "0.7542 ± 0.016", "unit": "mPa·s"},
      {"measurement": "viscosity", "setting": "308.15 K, x1 = 0.5999", "value": "0.6973 ± 0.015", "unit": "mPa·s"},
      {"measurement": "viscosity", "setting": "308.15 K, x1 = 0.6998", "value": "0.6428 ± 0.014", "unit": "mPa·s"},
      {"measurement": "viscosity", "setting": "308.15 K, x1 = 0.7999", "value": "0.6063 ± 0.013", "unit": "mPa·s"},
      {"measurement": "viscosity", "setting": "308.15 K, x1 = 0.9001", "value": "0.583 ± 0.013", "unit": "mPa·s"},
      {"measurement": "viscosity", "setting": "308.15 K, x1 = 1", "value": "0.5736 ± 0.013", "unit": "mPa·s"},
      {"measurement": "mass density", "setting": "308.15 K, x1 = 0.1", "value": "806.58 ± 0.21", "unit": "kg/m3"},
      {"measurement": "mass density", "setting": "308.15 K, x1 = 0.2001", "value": "814.33 ± 0.21", "unit": "kg/m3"},
      {"measurement": "mass density", "setting": "308.15 K, x1 = 0.2999", "value": "821.63 ± 0.22", "unit": "kg/m3"},
      {"measurement": "mass density", "setting": "308.15 K, x1 = 0.3998", "value": "828.5 ± 0.22", "unit": "kg/m3"},
      {"measurement": "mass density", "setting": "308.15 K, x1 = 0.5", "value": "835.01 ± 0.23", "unit": "kg/m3"},
      {"measurement": "mass density", "setting": "308.15 K, x1 = 0.5999", "value": "841.14 ± 0.23", "unit": "kg/m3"},
      {"measurement": "mass density", "setting": "308.15 K, x1 = 0.6998", "value": "846.94 ± 0.24", "unit": "kg/m3"},
      {"measurement": "mass density", "setting": "308.15 K, x1 = 0.7999", "value": "852.47 ± 0.25", "unit": "kg/m3"},
      {"measurement": "mass density", "setting": "308.15 K, x1 = 0.9001", "value": "857.82 ± 0.26", "unit": "kg/m3"},
      {"measurement": "mass density", "setting": "308.15 K, x1 = 1", "value": "863.02 ± 0.27", "unit": "kg/m3"},
      {"measurement": "viscosity", "setting": "313.15 K, x1 = 0.1", "value": "1.342 ± 0.029", "unit": "mPa·s"},
      {"measurement": "viscosity", "setting": "313.15 K, x1 = 0.2001", "value": "1.078 ± 0.023", "unit": "mPa·s"},
      {"measurement": "viscosity", "setting": "313.15 K, x1 = 0.2999", "value": "0.9078 ± 0.019", "unit": "mPa·s"},
      {"measurement": "viscosity", "setting": "313.15 K, x1 = 0.3998", "value": "0.7938 ± 0.017", "unit": "mPa·s"},
      {"measurement": "viscosity", "setting": "313.15 K, x1 = 0.5", "value": "0.7053 ± 0.015", "unit": "mPa·s"},
      {"measurement": "viscosity", "setting": "313.15 K, x1 = 0.5999", "value": "0.6517 ± 0.014", "unit": "mPa·s"},
      {"measurement": "viscosity", "setting": "313.15 K, x1 = 0.6998", "value": "0.6037 ± 0.013", "unit": "mPa·s"},
      {"measurement": "viscosity", "setting": "313.15 K, x1 = 0.7999", "value": "0.57 ± 0.012", "unit": "mPa·s"},
      {"measurement": "viscosity", "setting": "313.15 K, x1 = 0.9001", "value": "0.5487 ± 0.012", "unit": "mPa·s"},
      {"measurement": "viscosity", "setting": "313.15 K, x1 = 1", "value": "0.5425 ± 0.012", "unit": "mPa·s"},
      {"measurement": "mass density", "setting": "313.15 K, x1 = 0.1", "value": "802.44 ± 0.21", "unit": "kg/m3"},
      {"measurement": "mass density", "setting": "313.15 K, x1 = 0.2001", "value": "809.99 ± 0.21", "unit": "kg/m3"},
      {"measurement": "mass density", "setting": "313.15 K, x1 = 0.2999", "value": "817.12 ± 0.22", "unit": "kg/m3"},
      {"measurement": "mass density", "setting": "313.15 K, x1 = 0.3998", "value": "823.82 ± 0.22", "unit": "kg/m3"},
      {"measurement": "mass density", "setting": "313.15 K, x1 = 0.5", "value": "830.18 ± 0.23", "unit": "kg/m3"},
      {"measurement": "mass density", "setting": "313.15 K, x1 = 0.5999", "value": "836.19 ± 0.23", "unit": "kg/m3"},
      {"measurement": "mass density", "setting": "313.15 K, x1 = 0.6998", "value": "841.87 ± 0.24", "unit": "kg/m3"},
      {"measurement": "mass density", "setting": "313.15 K, x1 = 0.7999", "value": "847.3 ± 0.25", "unit": "kg/m3"},
      {"measurement": "mass density", "setting": "313.15 K, x1 = 0.9001", "value": "852.56 ± 0.26", "unit": "kg/m3"},
      {"measurement": "mass density", "setting": "313.15 K, x1 = 1", "value": "857.7 ± 0.27", "unit": "kg/m3"},
      {"measurement": "viscosity", "setting": "318.15 K, x1 = 0.1", "value": "1.204 ± 0.026", "unit": "mPa·s"},
      {"measurement": "viscosity", "setting": "318.15 K, x1 = 0.2001", "value": "0.9786 ± 0.021", "unit": "mPa·s"},
      {"measurement": "viscosity", "setting": "318.15 K, x1 = 0.2999", "value": "0.8314 ± 0.018", "unit": "mPa·s"},
      {"measurement": "viscosity", "setting": "318.15 K, x1 = 0.3998", "value": "0.7327 ± 0.016", "unit": "mPa·s"},
      {"measurement": "viscosity", "setting": "318.15 K, x1 = 0.5", "value": "0.6556 ± 0.014", "unit": "mPa·s"},
      {"measurement": "viscosity", "setting": "318.15 K, x1 = 0.5999", "value": "0.6088 ± 0.013", "unit": "mPa·s"},
      {"measurement": "viscosity", "setting": "318.15 K, x1 = 0.6998", "value": "0.5678 ± 0.012", "unit": "mPa·s"},
      {"measurement": "viscosity", "setting": "318.15 K, x1 = 0.7999", "value": "0.5382 ± 0.012", "unit": "mPa·s"},
      {"measurement": "viscosity", "setting": "318.15 K, x1 = 0.9001", "value": "0.5197 ± 0.011", "unit": "mPa·s"},
      {"measurement": "viscosity", "setting": "318.15 K, x1 = 1", "value": "0.5132 ± 0.011", "unit": "mPa·s"},
      {"measurement": "mass density", "setting": "318.15 K, x1 = 0.1", "value": "798.28 ± 0.21", "unit": "kg/m3"},
      {"measurement": "mass density", "setting": "318.15 K, x1 = 0.2001", "value": "805.63 ± 0.21", "unit": "kg/m3"},
      {"measurement": "mass density", "setting": "318.15 K, x1 = 0.2999", "value": "812.57 ± 0.22", "unit": "kg/m3"},
      {"measurement": "mass density", "setting": "318.15 K, x1 = 0.3998", "value": "819.12 ± 0.22", "unit": "kg/m3"},
      {"measurement": "mass density", "setting": "318.15 K, x1 = 0.5", "value": "825.33 ± 0.23", "unit": "kg/m3"},
      {"measurement": "mass density", "setting": "318.15 K, x1 = 0.5999", "value": "831.21 ± 0.23", "unit": "kg/m3"},
      {"measurement": "mass density", "setting": "318.15 K, x1 = 0.6998", "value": "836.78 ± 0.24", "unit": "kg/m3"},
      {"measurement": "mass density", "setting": "318.15 K, x1 = 0.7999", "value": "842.11 ± 0.25", "unit": "kg/m3"},
      {"measurement": "mass density", "setting": "318.15 K, x1 = 0.9001", "value": "847.29 ± 0.26", "unit": "kg/m3"},
      {"measurement": "mass density", "setting": "318.15 K, x1 = 1", "value": "852.36 ± 0.27", "unit": "kg/m3"},
      {"measurement": "viscosity", "setting": "323.15 K, x1 = 0.1", "value": "1.109 ± 0.024", "unit": "mPa·s"},
      {"measurement": "viscosity", "setting": "323.15 K, x1 = 0.2001", "value": "0.9039 ± 0.019", "unit": "mPa·s"},
      {"measurement": "viscosity", "setting": "323.15 K, x1 = 0.2999", "value": "0.7743 ± 0.017", "unit": "mPa·s"},
      {"measurement": "viscosity", "setting": "323.15 K, x1 = 0.3998", "value": "0.685 ± 0.015", "unit": "mPa·s"},
      {"measurement": "viscosity", "setting": "323.15 K, x1 = 0.5", "value": "0.6163 ± 0.013", "unit": "mPa·s"},
      {"measurement": "viscosity", "setting": "323.15 K, x1 = 0.5999", "value": "0.5736 ± 0.012", "unit": "mPa·s"},
      {"measurement": "viscosity", "setting": "323.15 K, x1 = 0.6998", "value": "0.5372 ± 0.012", "unit": "mPa·s"},
      {"measurement": "viscosity", "setting": "323.15 K, x1 = 0.7999", "value": "0.5114 ± 0.011", "unit": "mPa·s"},
      {"measurement": "viscosity", "setting": "323.15 K, x1 = 0.9001", "value": "0.4942 ± 0.011", "unit": "mPa·s"},
      {"measurement": "viscosity", "setting": "323.15 K, x1 = 1", "value": "0.487 ± 0.011", "unit": "mPa·s"},
      {"measurement": "mass density", "setting": "323.15 K, x1 = 0.1", "value": "794.08 ± 0.21", "unit": "kg/m3"},
      {"measurement": "mass density", "setting": "323.15 K, x1 = 0.2001", "value": "801.22 ± 0.21", "unit": "kg/m3"},
      {"measurement": "mass density", "setting": "323.15 K, x1 = 0.2999", "value": "807.99 ± 0.22", "unit": "kg/m3"},
      {"measurement": "mass density", "setting": "323.15 K, x1 = 0.3998", "value": "814.38 ± 0.22", "unit": "kg/m3"},
      {"measurement": "mass density", "setting": "323.15 K, x1 = 0.5", "value": "820.45 ± 0.23", "unit": "kg/m3"},
      {"measurement": "mass density", "setting": "323.15 K, x1 = 0.5999", "value": "826.2 ± 0.23", "unit": "kg/m3"},
      {"measurement": "mass density", "setting": "323.15 K, x1 = 0.6998", "value": "831.66 ± 0.24", "unit": "kg/m3"},
      {"measurement": "mass density", "setting": "323.15 K, x1 = 0.7999", "value": "836.9 ± 0.25", "unit": "kg/m3"},
      {"measurement": "mass density", "setting": "323.15 K, x1 = 0.9001", "value": "842 ± 0.26", "unit": "kg/m3"},
      {"measurement": "mass density", "setting": "323.15 K, x1 = 1", "value": "847 ± 0.27", "unit": "kg/m3"}
    ]}
  ]
}
